According to ChEMBL document CHEMBL4715755, “Isothiouronium modification empowers pyrimidine-substituted curcumin analogs potent cytotoxicity and Golgi localization” (Eur J Med Chem, 2016):
Activity calls are given as the source filed them. The calls are words filed in the database; no cut-off is given here.

Tests used:
[1] = test system: A549; test: Cytotoxicity against human A549 cells assessed as reduction in cell viability incubated for 48 hrs by resazurin reagent based fluorescence assay; assay type: functional; settings: A549, 48 h
[2] = test system: NCI-H1299; test: Cytotoxicity against human NCI-H1299 cells assessed as reduction in cell viability incubated for 48 hrs by resazurin reagent based fluorescence assay; assay type: functional; settings: NCI-H1299, 48 h
[3] = test system: HT-29; test: Cytotoxicity against human HT-29 cells assessed as reduction in cell viability incubated for 48 hrs by resazurin reagent based fluorescence assay; assay type: functional; settings: HT-29, 48 h
[4] = test system: HCT-116; test: Cytotoxicity against human HCT-116 cells assessed as reduction in cell viability incubated for 48 hrs by resazurin reagent based fluorescence assay; assay type: functional; settings: HCT-116, 48 h
[5] = test system: CHO; test: Cytotoxicity against CHO cells overexpressing 3-O-sulfotransferase 2 assessed as reduction in cell viability at 10 uM incubated for 48 hrs by resazurin reagent based fluorescence assay; parameters: species or system Cricetulus griseus; settings: chinese hamster
[6] = Cytotoxicity against GAG-deficient CHO-745 cells assessed as reduction in cell viability at 10 uM incubated for 48 hrs by resazurin reagent based fluorescence assay; parameters: species or system Cricetulus griseus; settings: chinese hamster, cho-745, 48 h
[7] = test system: CHO-K1; test: Cytotoxicity against CHO-K1 cells assessed as reduction in cell viability at 10 uM incubated for 48 hrs by resazurin reagent based fluorescence assay; parameters: species or system Cricetulus griseus; settings: chinese hamster, cho-k1, 48 h
[8] = test system: CHO; test: Cytotoxicity against CHO cells overexpressing 3-O-sulfotransferase 3 assessed as reduction in cell viability at 10 uM incubated for 48 hrs by resazurin reagent based fluorescence assay; parameters: species or system Cricetulus griseus; settings: chinese hamster
[9] = test system: CHO; test: Cytotoxicity against CHO cells overexpressing 3-O-sulfotransferase 4 assessed as reduction in cell viability at 10 uM incubated for 48 hrs by resazurin reagent based fluorescence assay; parameters: species or system Cricetulus griseus; settings: chinese hamster
[10] = Drug localization in cytoplasm of human A549 cells at 10 uM incubated for 4 hrs by Golgin-97 and DAPI staining based laser scanning confocal microscopic analysis; assay type: ADME, subcellular; settings: a549, 4 h
[11] = test system: CHO; test: Cytotoxicity against CHO cells overexpressing 3-O-sulfotransferase 1 assessed as reduction in cell viability at 10 uM incubated for 48 hrs by resazurin reagent based fluorescence assay; parameters: species or system Cricetulus griseus; settings: chinese hamster
[12] = Drug localization in cytoplasm of human HCT-116 cells at 10 uM measured upto 12 hrs by Golgin-97 and DAPI staining based laser scanning confocal microscopic analysis; assay type: ADME, subcellular; settings: hct-116, 12 h
[13] = test system: A549; test: Cytotoxicity against human A549 cells assessed as reduction in cell viability at 10 uM incubated for 48 hrs by resazurin reagent based fluorescence assay; assay type: functional
[14] = Cytotoxicity against heparan sulfate-deficient CHO-677 cells assessed as reduction in cell viability at 10 uM incubated for 48 hrs by resazurin reagent based fluorescence assay; parameters: species or system Cricetulus griseus; settings: chinese hamster, cho-677, 48 h
[15] = Drug localization in cytoplasm of human A549 cells at 10 uM measured upto 12 hrs by Golgin-97 and DAPI staining based laser scanning confocal microscopic analysis; assay type: ADME, subcellular; settings: a549, 12 h
[16] = Drug localization in golgi vesicles of human A549 cells at 10 uM incubated for 4 hrs by Golgin-97 and DAPI staining based laser scanning confocal microscopic analysis; assay type: ADME, subcellular, Golgi body; settings: a549, 4 h
[17] = Drug localization in golgi bodies of human HCT-116 cells at 10 uM measured upto 12 hrs by Golgin-97 and DAPI staining based laser scanning confocal microscopic analysis; assay type: ADME, subcellular, Golgi body; settings: hct-116, 12 h
[18] = Drug localization in golgi bodies of human A549 cells at 10 uM measured upto 12 hrs by Golgin-97 and DAPI staining based laser scanning confocal microscopic analysis; assay type: ADME, subcellular, Golgi body; settings: a549, 12 h
[19] = Drug localization in golgi bodies of human A549 cells at 10 uM incubated for 4 hrs by Golgin-97 and DAPI staining based laser scanning confocal microscopic analysis; assay type: ADME, subcellular, Golgi body; settings: a549, 4 h

| Compound | IC50 [1] | IC50 [2] | IC50 [3] | IC50 [4] | further results |
| --- | --- | --- | --- | --- | --- |
| COc1cc(/C=C/c2cc(/C=C/c3cc(OC)c(OC)c(OC)c3)nc(OCCCCBr)n2)cc(OC)c1OC | > 20 µM | > 20 µM | > 20 µM | > 20 µM |  |
| N=C(N)SCCCCCCOc1nc(/C=C/c2ccccc2)cc(/C=C/c2ccccc2)n1 | 3.98 µM | 6.4 µM | 2.89 µM | 2.3 µM |  |
| COc1ccc(/C=C/c2cc(/C=C/c3ccc(OC)c(OC)c3)nc(OCCCCCBr)n2)cc1OC | > 20 µM | > 20 µM | > 20 µM | > 20 µM |  |
| COc1ccc(/C=C/c2cc(/C=C/c3ccc(OC)c(OC)c3)nc(OCCCCCCBr)n2)cc1OC | > 20 µM | > 20 µM | > 20 µM | > 20 µM |  |
| COc1ccc(/C=C/c2cc(/C=C/c3ccc(OC)cc3)nc(OCCCCBr)n2)cc1 | > 20 µM | > 20 µM | > 20 µM | > 20 µM | Activity [5]: Non-Toxic; Activity [6]: Non-Toxic; Activity [7]: Non-Toxic; Activity [8]: Non-Toxic; Activity [9]: Non-Toxic; Drug uptake [10]: Active; Activity [11]: Non-Toxic; Drug uptake [12]: Active; Activity [13]: inactive; Activity [14]: Non-Toxic; Drug uptake [15]: Active |
| COc1cc(/C=C/c2cc(/C=C/c3cc(OC)c(OC)c(OC)c3)nc(OCCCCSC(N(C)C)=[N+](C)C)n2)cc(OC)c1OC | 14.4 µM | 15 µM | 10.5 µM | 5.41 µM |  |
| BrCCCCOc1nc(/C=C/c2ccccc2)cc(/C=C/c2ccccc2)n1 | > 20 µM | > 20 µM | > 20 µM | > 20 µM |  |
| Br.COc1ccc(/C=C/c2cc(/C=C/c3ccc(OC)cc3)nc(OCCCCCSC(=N)N)n2)cc1 | 1.97 µM | 2.96 µM | 2.03 µM | 1.93 µM | Drug uptake [16]: Active; Drug uptake [17]: Active; Drug uptake [18]: Active |
| COc1ccc(/C=C/c2cc(/C=C/c3ccc(OC)c(OC)c3)nc(OCCCCCSC(=N)N)n2)cc1OC | 1.99 µM | 4.04 µM | 1.91 µM | 1.81 µM |  |
| COc1cc(/C=C/c2cc(/C=C/c3cc(OC)c(OC)c(OC)c3)nc(OCCCCSC(=N)N)n2)cc(OC)c1OC | 4.24 µM | 5.1 µM | 2.19 µM | 3.77 µM |  |
| COc1cc(/C=C/c2cc(/C=C/c3cc(OC)c(OC)c(OC)c3)nc(OCCCCCSC(=N)N)n2)cc(OC)c1OC | 2.88 µM | 4.13 µM | 1.86 µM | 2.08 µM |  |
| Br.COc1ccc(/C=C/c2cc(/C=C/c3ccc(OC)c(OC)c3)nc(OCCCCSC(=N)N)n2)cc1OC | 2.36 µM | 1.53 µM | 0.61 µM | 1.86 µM | Activity [5]: Toxic; Activity [6]: Toxic; Activity [7]: Toxic; Activity [8]: Toxic; Activity [9]: Toxic; Activity [11]: Toxic; Activity [13]: Active; Activity [14]: Toxic |
| COc1cc(/C=C/c2cc(/C=C/c3cc(OC)c(OC)c(OC)c3)nc(OCCCCCCSC(=N)N)n2)cc(OC)c1OC | 2 µM | 3.09 µM | 1.17 µM | 1.87 µM |  |
| BrCCCCCOc1nc(/C=C/c2ccccc2)cc(/C=C/c2ccccc2)n1 | > 20 µM | > 20 µM | > 20 µM | > 20 µM |  |
| COc1ccc(/C=C/c2cc(/C=C/c3ccc(OC)cc3)nc(OCCCCSC(N(C)C)=[N+](C)C)n2)cc1.[Br-] | 2.26 µM | 7.49 µM | 5.97 µM | 3 µM | Activity [5]: Non-Toxic; Activity [6]: Non-Toxic; Activity [7]: Non-Toxic; Activity [8]: Non-Toxic; Activity [9]: Non-Toxic; Drug uptake [17]: Not Active; Drug uptake [18]: Not Active; Activity [11]: Non-Toxic; Activity [13]: Active; Activity [14]: Non-Toxic |
| BrCCCCCCOc1nc(/C=C/c2ccccc2)cc(/C=C/c2ccccc2)n1 | > 20 µM | > 20 µM | > 20 µM | > 20 µM |  |
| COc1ccc(/C=C/c2cc(/C=C/c3ccc(OC)c(OC)c3)nc(OCCCCSC(N(C)C)=[N+](C)C)n2)cc1OC.[Br-] | 9.71 µM | 5.81 µM | 4.1 µM | 3.89 µM | Activity [5]: Non-Toxic; Activity [6]: Non-Toxic; Activity [7]: Non-Toxic; Activity [8]: Non-Toxic; Activity [9]: Non-Toxic; Activity [11]: Non-Toxic; Activity [13]: Active; Activity [14]: Non-Toxic |
| N=C(N)SCCCCOc1nc(/C=C/c2ccccc2)cc(/C=C/c2ccccc2)n1 | 4.57 µM | 4.51 µM | 1.75 µM | 1.87 µM |  |
| COc1ccc(/C=C/c2cc(/C=C/c3ccc(OC)cc3)nc(OCCCCCCBr)n2)cc1 | > 20 µM | > 20 µM | > 20 µM | > 20 µM |  |
| COc1cc(/C=C/c2cc(/C=C/c3cc(OC)c(OC)c(OC)c3)nc(OCCCCCBr)n2)cc(OC)c1OC | > 20 µM | > 20 µM | > 20 µM | > 20 µM |  |
| N=C(N)SCCCCCOc1nc(/C=C/c2ccccc2)cc(/C=C/c2ccccc2)n1 | 4.11 µM | 7.09 µM | 2.82 µM | 2.39 µM |  |
| Br.COc1ccc(/C=C/c2cc(/C=C/c3ccc(OC)cc3)nc(OCCCCSC(=N)N)n2)cc1 | 0.99 µM | 0.92 µM | 0.79 µM | 1 µM | Activity [5]: Toxic; Activity [6]: Toxic; Activity [7]: Toxic; Activity [8]: Toxic; Activity [9]: Toxic; Drug uptake [17]: Active; Drug uptake [18]: Active; Activity [11]: Toxic; Activity [13]: Active; Drug uptake [19]: Active; Activity [14]: Toxic |
| COc1cc(/C=C/c2cc(/C=C/c3cc(OC)c(OC)c(OC)c3)nc(OCCCCCCBr)n2)cc(OC)c1OC | > 20 µM | > 20 µM | > 20 µM | > 20 µM |  |
| COc1ccc(/C=C/c2cc(/C=C/c3ccc(OC)c(OC)c3)nc(OCCCCCCSC(=N)N)n2)cc1OC | 2.09 µM | 3.75 µM | 1.72 µM | 2.02 µM |  |
| Br.COc1ccc(/C=C/c2cc(/C=C/c3ccc(OC)cc3)nc(OCCCCCCSC(=N)N)n2)cc1 | 1.97 µM | 3.69 µM | 2.14 µM | 1.98 µM | Drug uptake [16]: Active; Drug uptake [17]: Active; Drug uptake [18]: Active |
| COc1ccc(/C=C/c2cc(/C=C/c3ccc(OC)c(OC)c3)nc(OCCCCBr)n2)cc1OC | > 20 µM | > 20 µM | > 20 µM | > 20 µM | Activity [5]: Toxic; Activity [6]: Toxic; Activity [7]: Toxic; Activity [8]: Toxic; Activity [9]: Toxic; Activity [11]: Toxic; Activity [13]: Active; Activity [14]: Toxic |
| COc1ccc(/C=C/c2cc(/C=C/c3ccc(OC)cc3)nc(OCCCCCBr)n2)cc1 | > 20 µM | > 20 µM | > 20 µM | > 20 µM |  |
